Test results from ChEMBL document CHEMBL1201862, “PubChem BioAssay data set” (2004).
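A five-concentration, 48-hour dose response in 96-well plates underlies each endpoint, interpolated linearly between surrounding concentrations. GI50: concentration for 50% inhibition of growth.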 Calls of active or inactive are those of the source. Rule as the data show it: active = GI50 up to about 1.1 µM and inactive = higher. *1 amine or outer side, *2 acyl side, *3 side chain or, on linkers, in order; H or OH if unused. Where a SMILES comes first, the peptide text is derived from it. Bridges are numbered along the chain shown (N, C = ends). Roman numbers before positions name the chains, in order. [ ]: non-standard residue; d: D form. Actinocin(9to1) = Cc1c2oc3c(C)ccc(C(=O)[*:1])c3nc-2c(C(=O)[*:2])c(N)c1=O; Hyp = O=C(O)[CH]1C[CH](O)CN1; NMeV = CN[CH](C(=O)O)C(C)C; Sar = CNCC(=O)O

Legend:
Assay in all cases: NCI-60 cell line screen, 48 h
[1] = system: IGROV-1
[2] = system: DU-145
[3] = system: SF-539
[4] = system: Hs-578T
[5] = system: HCT-116
[6] = system: NCI/ADR-RES
[7] = system: HT-29
[8] = system: HCT-15
[9] = system: SR
[10] = system: UO-31
[11] = system: SN12C
[12] = system: MDA-MB-435
[13] = system: NCI-H460
[14] = system: RPMI-8226
[15] = system: SNB-75
[16] = system: NCI-H23
[17] = system: SF-295
[18] = system: SK-MEL-2
[19] = system: NCI-H522
[20] = system: HOP-92
[21] = system: LOX IMVI
[22] = system: OVCAR-3
[23] = system: PC-3
[24] = system: A498
[25] = system: MOLT-4
[26] = system: CCRF-CEM
[27] = system: OVCAR-4
[28] = system: MDA-MB-231
[29] = system: M14
[30] = system: HCC 2998
[31] = system: K562
[32] = system: EKVX
[33] = system: NCI-H226
[34] = system: SW-620
[35] = system: ACHN
[36] = system: TK-10
[37] = system: SK-MEL-5
[38] = system: COLO 205
[39] = system: HOP-62
[40] = system: MDA-N
[41] = system: U-251
[42] = system: HL-60
[43] = system: MCF7
[44] = system: UACC-257
[45] = system: SK-OV-3
[46] = system: SK-MEL-28
[47] = system: OVCAR-8
[48] = system: SF-268
[49] = system: RXF 393
[50] = system: 786-0
[51] = system: T47D
[52] = system: CAKI-1
[53] = system: Malme-3M
[54] = system: OVCAR-5
[55] = system: KM12
[56] = system: A549
[57] = system: SNB-19
[58] = system: UACC-62
[59] = system: BT-549

Measured: GI50

Cc1c2oc3c(C)ccc(C(=O)NC4C(=O)NC(C(C)C)C(=O)N5CC(O)CC5C(=O)N(C)CC(=O)N(C)C(C(C)C)C(=O)OC4C)c3nc-2c(C(=O)NC2C(=O)NC(C(C)C)C(=O)N3CC(O)CC3C(=O)N(C)CC(=O)N(C)C(C(C)C)C(=O)OC2C)c(N)c1=O (configuration not stated) (I: TV[Hyp][Sar][NMeV] / II: TV[Hyp][Sar][NMeV]; ester I:1-I:C, II:1-II:C; linker I:N-II:N via Actinocin(9to1); configuration not given here)
> 1 µM: [8]
active: [1] > 1 µM | [2] > 1 µM | [3] > 1 µM | [4] > 1 µM | [5] > 1 µM | [6] > 1 µM | [7] > 1 µM | [9] 0.748 µM | [10] > 1 µM | [11] > 1 µM | [12] > 1 µM | [13] > 1 µM | [14] > 1 µM | [15] > 1 µM | [16] > 1 µM | [17] > 1 µM | [18] > 1 µM | [19] 0.0522 µM | [20] > 1 µM | [21] > 1 µM | [22] > 1 µM | [23] > 1 µM | [24] > 1 µM | [25] > 1 µM | [26] > 1 µM | [27] > 1 µM | [28] > 1 µM | [29] > 1 µM | [30] > 1 µM | [31] > 1 µM | [32] > 1 µM | [33] > 1 µM | [34] > 1 µM | [35] > 1 µM | [36] > 1 µM | [37] > 1 µM | [38] > 1 µM | [39] > 1 µM | [40] > 1 µM | [41] > 1 µM | [42] > 1 µM | [43] > 1 µM | [44] > 1 µM | [45] > 1 µM | [46] > 1 µM | [47] > 1 µM | [48] > 1 µM | [49] > 1 µM | [50] > 1 µM | [51] > 1 µM | [52] > 1 µM | [53] > 1 µM | [54] > 1 µM | [55] > 1 µM | [56] > 1 µM | [57] > 1 µM

N#Cc1c(OCCF)c2ccccc2n2c1nc1ccccc12
inactive: [1] 23.8 µM | [2] 79.8 µM | [3] 16.9 µM | [4] 17.3 µM | [5] 11.2 µM | [6] 45.3 µM | [7] 64.3 µM | [9] > 100 µM | [10] 14.2 µM | [12] 46.5 µM | [13] 21.7 µM | [14] > 100 µM | [15] 70.6 µM | [58] 48.6 µM | [16] 69 µM | [17] 23.9 µM | [18] > 100 µM | [19] 19.6 µM | [21] 31.3 µM | [22] 67 µM | [23] 59.2 µM | [24] 1.94 µM | [25] 27.8 µM | [26] 95.7 µM | [27] 32.3 µM | [28] > 100 µM | [29] > 100 µM | [30] > 100 µM | [31] > 100 µM | [32] 99.1 µM | [33] 63.5 µM | [34] > 100 µM | [35] 23.3 µM | [36] 31.1 µM | [37] 49.5 µM | [38] > 100 µM | [39] 29.9 µM | [40] > 100 µM | [41] 37.6 µM | [42] 97.7 µM | [43] 16.6 µM | [44] 93.3 µM | [45] 27 µM | [46] > 100 µM | [47] 42.3 µM | [48] 27 µM | [49] 17.3 µM | [51] > 100 µM | [52] 52.2 µM | [54] > 100 µM | [55] > 100 µM | [56] 31.6 µM | [57] 29.2 µM
32.7 µM: [8]

CSc1n[nH]c2c1c(C)nn2-c1ccccc1
> 100 µM: [8]
inactive: [1] > 100 µM | [3] > 100 µM | [7] > 100 µM | [9] > 100 µM | [10] > 100 µM | [12] > 100 µM | [13] > 100 µM | [59] > 100 µM | [14] > 100 µM | [58] > 100 µM | [16] > 100 µM | [18] > 100 µM | [20] > 100 µM | [22] > 100 µM | [23] > 100 µM | [25] > 100 µM | [27] > 100 µM | [29] > 100 µM | [30] > 100 µM | [31] > 100 µM | [32] > 100 µM | [33] > 100 µM | [34] > 100 µM | [36] > 100 µM | [37] > 100 µM | [41] > 100 µM | [42] 71.3 µM | [43] > 100 µM | [44] > 100 µM | [45] > 100 µM | [46] > 100 µM | [49] > 100 µM | [54] > 100 µM | [56] > 100 µM | [57] > 100 µM
